SMILES strings stand for the structures.

One assay concerns human cardiac fibroblasts. Nature of the assay: Cell-based inhibition assay of generation of procollagen I C-terminal propeptide (PICP), PICP ELISA. The settings on record: Cardiac fibroblast; human cardiac fibroblasts, crowding media, 24 to 48 hr, PICP ELISA of media; read-out: pIC50, PICP cellular inhibition assay (converted). The method in brief: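 Cardiac fibroblasts (passage ≤6) treated 24–48 h at 37 °C with compounds in ficoll crowding medium containing 100 μM ascorbic acid, DMSO <0.3%. PICP secreted into the medium was quantified by ELISA, normalised to untreated controls and fitted to log(inhibitor)–response to give pIC50.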
On the technique in general: An ELISA detects its analyte on a solid surface through an enzyme-linked reagent.
Take `CCCCC[C@H](CN(O)C=O)C(=O)NCNC(=O)c1ccc(-c2cccc(SC)c2)o1` [Example 104, (R)-N-((2-((N-hydroxyformamido)methyl)heptanamido)methyl)-5-(3-(methylthio)phenyl)furan-2-carboxamide]: the IC50 is less than 3.98 µM.

On to `CCCCC[C@@H](C(=O)NCNC(=O)c1ccc(-c2ccc(C(=O)N[C@@H](CC(=O)O)C(=O)O)c(C)c2)o1)[C@@H](CC)N(O)C=O` [Example 120, (S)-2-(4-(5-((((R)-2-((R)-1-(N-hydroxyformamido)propyl)heptanamido)methyl)carbamoyl)furan-2-yl)-2-methylbenzamido) succinic acid], for which the IC50 was less than 3.98 µM.

For the molecule `CCCCC[C@@H](C(=O)NCNC(=O)c1ccc(-c2cc(OCC)cc(C(=O)NCCN)c2)o1)[C@@H](CC)N(O)C=O` [Example 40, 5-(3-((2-aminoethyl)carbamoyl)-5-ethoxyphenyl)-N-(((R)-2-((R)-1-(N-hydroxyformamido)propyl)heptanamido)methyl) furan-2-carboxamide], the IC50 was less than 3.98 µM.

For `CCCCC[C@H](CN(O)C=O)C(=O)NCNC(=O)c1ccc(-c2cccc(N(C)C)c2)o1` [Example 27, (R)-5-(3-(dimethylamino)phenyl)-N-((2-((N-hydroxyformamido)methyl)heptanamido)methyl) furan-2-carboxamide], the IC50 is less than 3.98 µM.

With `CCCCC[C@H](CN(O)C=O)C(=O)NCNC(=O)c1ccc(-c2cc(OC)ccn2)o1` [Example 18, (R)-N-((2-((N-hydroxyformamido)methyl)heptanamido)methyl)-5-(4-methoxypyridin-2-yl)furan-2-carboxamide], the IC50 is less than 3.98 µM.

As to `CCCCC[C@H](CN(O)C=O)C(=O)NCNC(=O)c1ccc(-c2cccc(P(=O)(O)O)c2)o1` [Example 108, (R)-(3-(5-(((2-((N-hydroxyformamido)methyl)heptanamido)methyl)carbamoyl)furan-2-yl)phenyl)phosphonic acid], the IC50 is less than 3.98 µM.

For the molecule `CCCCC[C@@H](C(=O)NCNC(=O)c1ccc(-c2cc(OCC(N)=O)cc(C(=O)O)c2)o1)[C@@H](CC)N(O)C=O` [Example 131, 3-(2-amino-2-oxoethoxy)-5-(5-((((R)-2-((R)-1-(N-hydroxyformamido)propyl)heptanamido)methyl)carbamoyl)furan-2-yl)benzoic acid], the IC50 was less than 3.98 µM.

Regarding `CCCCC[C@H](CN(O)C=O)C(=O)NCNC(=O)c1ccc(-c2cc(OCC)cc(C(=O)O)c2)o1` [Example 30, (R)-3-ethoxy-5-(5-(((2-((N-hydroxyformamido)methyl)heptanamido)methyl)carbamoyl)furan-2-yl)benzoic acid], the IC50 was less than 3.98 µM.

On to `CCCCC[C@H](CN(O)C=O)C(=O)NCNC(=O)c1ccc(-c2cccc(SCC)c2)o1` [Example 103, (R)-5-(3-(ethylthio)phenyl)-N-((2-((N-hydroxyformamido)methyl)heptanamido)methyl)furan-2-carboxamide], for which the IC50 is less than 3.98 µM.

Consider `CCCCC[C@H](CN(O)C=O)C(=O)NCNC(=O)c1ccc(-c2cccc(C(=O)O)c2)o1` [Example 89, (R)-3-(5-(((2-((N-hydroxyformamido)methyl)heptanamido)methyl)carbamoyl)furan-2-yl)benzoic acid], for which the IC50 was less than 3.98 µM.

On to `CCCCC[C@H](CN(O)C=O)C(=O)NCNC(=O)c1ccc(-c2cccc(S(=O)(=O)NC)c2)o1` [Example 22, (R)-N-((2-((N-hydroxyformamido)methyl)heptanamido)methyl)-5-(3-(N-methylsulfamoyl)phenyl) furan-2-carboxamide], for which the IC50 is less than 3.98 µM.

With `CCCCC[C@@H](C(=O)NCNC(=O)c1ccc(-c2ccc(C(=O)N(CC(=O)O)CC(=O)O)cc2)o1)[C@@H](CC)N(O)C=O` [Example 136, 2,2′-((4-(5-((((R)-2-((R)-1-(N-hydroxyformamido)propyl)heptanamido)methyl)carbamoyl)furan-2-yl)benzoyl)azanediyl)diacetic acid], the IC50 was less than 3.98 µM.

On to `CCCCC[C@@H](C(=O)NCNC(=O)c1ccc(-c2cc(CN(C)CC(=O)O)cc(OCC)c2)o1)[C@@H](CC)N(O)C=O` [Example 130, 2-((3-ethoxy-5-(5-((((R)-2-((R)-1-(N-hydroxyformamido)propyl)heptanamido)methyl)carbamoyl)furan-2-yl)benzyl)(methyl)amino)acetic acid], for which the IC50 was less than 3.98 µM.

Take `CCCCC[C@H](CN(O)C=O)C(=O)NCNC(=O)c1ccc(-c2cccc(OCC(F)F)c2)o1` [Example 102, (R)-5-(3-(2,2-difluoroethoxy)phenyl)-N-((2-((N-hydroxyformamido)methyl)heptanamido)methyl)furan-2-carboxamide]: the IC50 is less than 3.98 µM.

On to `CCCCC[C@H](CN(O)C=O)C(=O)NCNC(=O)c1ccc(-c2cc(OC)ccc2OC)o1` [Example 53, (R)-5-(2,5-dimethoxyphenyl)-N-((2-((N-hydroxyformamido)methyl)heptanamido)methyl)furan-2-carboxamide], for which the IC50 was less than 3.98 µM.

Regarding `CCCCC[C@@H](C(=O)NCNC(=O)c1ccc(-c2ccc(C3(C(=O)O)CC3)cc2)o1)[C@@H](CC)N(O)C=O` [Example 44, 1-(4-(5-((((R)-2-((R)-1-(N-hydroxyformamido)propyl)heptanamido)methyl)carbamoyl)furan-2-yl)phenyl)cyclopropane-carboxylic acid], the IC50 was less than 3.98 µM.

In the case of `CCCCC[C@@H](C(=O)NCNC(=O)c1ccc(-c2ccc(C(=O)O)c(CC(=O)O)c2)o1)[C@@H](CC)N(O)C=O` [Example 114], the IC50 is less than 3.98 µM.

With `CCCCC[C@H](CN(O)C=O)C(=O)NCNC(=O)c1ccc(-c2cccc(C(=O)O)c2C)o1` [Example 61, (R)-3-(5-(((2-((N-hydroxyformamido)methyl)heptanamido)methyl)carbamoyl)furan-2-yl)-2-methylbenzoic acid], the IC50 was less than 3.98 µM.

As to `CCCCC[C@@H](C(=O)NCNC(=O)c1ccc(-c2cccc(C(=O)N[C@@H](CC(=O)O)C(=O)O)c2)o1)[C@@H](CC)N(O)C=O` [Example 83, (S)-2-(3-(5-((((R)-2-((R)-1-(N-hydroxy-formamido)propyl)heptamido)methyl)carbamoyl)furan-2-yl)benzamido) succinic acid], the IC50 was less than 3.98 µM.

The assay is the same for the next values; noted with them: Homo sapiens, Cardiac fibroblast, read-out: pIC50, PICP cellular inhibition assay (converted).
Regarding `CCCCC[C@@H](C(=O)NCNC(=O)c1ccc(-c2ccc(F)c(CC(=O)O)c2)o1)[C@@H](CC)N(O)C=O` [Example 70, 2-(2-fluoro-5-(5-((((R)-2-((R)-1-(N-hydroxyformamido)propyl)heptanamido)methyl)carbamoyl)furan-2-yl)phenyl)acetic acid], the IC50 was less than 3.98 µM.

Take `CCCCC[C@@H](C(=O)NCNC(=O)c1ccc(-c2cc(CC(=O)O)cc(OCC)c2)o1)[C@@H](CC)N(O)C=O` [Example 72, 2-(3-ethoxy-5-(5-((((R)-2-((R)-1-(N-hydroxyformamido)propyl)heptanamido)methyl)carbamoyl)furan-2-yl)phenyl)acetic acid]: the IC50 is less than 3.98 µM.

As to `CCCCC[C@@H](C(=O)NCNC(=O)c1ccc(-c2cc(OCC)cc(P(=O)(O)OC)c2)o1)[C@@H](CC)N(O)C=O` [Example 101, methyl hydrogen (3-ethoxy-5-(5-((((R)-2-((R)-1-(N-hydroxyformamido)propyl)heptanamido)methyl)carbamoyl)furan-2-yl)phenyl)phosphonate], the IC50 was less than 3.98 µM.

Values taken from patent US10450288B2, “Hydroxy formamide derivatives and their use” (GLAXOSMITHKLINE INTELLECTUAL PROPERTY (NO.2) LIMITED, priority 2014, dated 2019).
